Measurements reported in PubChem BioAssay (NCI).
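Exposure lasted 48 hours, with cells grown in 96-well plates and compounds tested at five concentrations. TGI is the concentration that stops growth completely.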

Columns and labels:
Experiment in all cases: NCI tumour cell line growth inhibition, 48 h
[1] = system: OVCAR-8 ovarian
[2] = system: SW-620 colon
[3] = system: UACC-62 melanoma
[4] = system: MOLT-4 leukemia
[5] = system: XF 498 CNS
[6] = system: K-562 leukemia
[7] = system: SF-268 CNS
[8] = system: CCRF-CEM leukemia
[9] = system: HCC-2998 colon
[10] = system: P388 leukemia
[11] = system: KM12 colon
[12] = system: A498 renal
[13] = system: NCI-H23 lung
[14] = system: NCI-H522 lung
[15] = system: SN12C renal
[16] = system: NCI-H226 lung
[17] = system: NCI-H460 lung
[18] = system: SF-295 CNS
[19] = system: SN12K1 renal
[20] = system: HOP-18 NSCLC
[21] = system: HL-60(TB) leukemia
[22] = system: KM20L2 colon
[23] = system: U251 CNS
[24] = system: OVCAR-4 ovarian
[25] = system: HCT-116 colon
[26] = system: SNB-78 CNS
[27] = system: UO-31 renal
[28] = system: OVCAR-5 ovarian
[29] = system: SF-539 CNS
[30] = system: EKVX NSCLC
[31] = system: IGROV1 ovarian
[32] = system: SK-MEL-5 melanoma
[33] = system: OVCAR-3 ovarian
[34] = system: SK-MEL-28 melanoma
[35] = system: SNB-19 CNS
[36] = system: SK-MEL-2 melanoma
[37] = system: SNB-75 CNS
[38] = system: DLD-1 colon
[39] = system: DMS 114 small cell lung
[40] = system: RPMI-8226 leukemia
[41] = system: MCF7 breast
[42] = system: SK-OV-3 ovarian
[43] = system: LOX IMVI melanoma
[44] = system: DMS 273 small cell lung
[45] = system: A549 NSCLC
[46] = system: UACC-257 melanoma
[47] = system: HT29 colon
[48] = system: COLO 205 colon
[49] = system: HCT-15 colon
[50] = system: MALME-3M melanoma
[51] = system: NCI/ADR-RES ovarian
[52] = system: P388/ADR leukemia
[53] = system: HOP-62 NSCLC
[54] = system: M19-MEL melanoma
[55] = system: RXF 393 renal
[56] = system: 786-0 renal
[57] = system: SR leukemia
[58] = system: ACHN renal
[59] = system: TK-10 renal
[60] = system: HOP-92 NSCLC
[61] = system: LXFL 529 NSCLC
[62] = system: RXF-631 renal
[63] = system: M14 melanoma

CC(C)CCCC(C)[C@H]1CCC(C2C[C@@H](O)[C@@H]3CC(O)[C@@H](O)C[C@]3(CO)C2=O)[C@]1(C)CCO (stereo not given in full)
TGI [1]: > 76.1 µM | TGI [2]: 52.7 µM | TGI [3]: 34.5 µM | TGI [4]: 22.4 µM | TGI [5]: > 59.6 µM | TGI [6]: 61.2 µM | TGI [7]: 54.1 µM | TGI [8]: 40.9 µM | TGI [9]: 38.4 µM | TGI [10]: 49.5 µM | TGI [11]: 19.6 µM | TGI [12]: 48.9 µM | TGI [13]: > 90.5 µM | TGI [14]: 73.8 µM | TGI [15]: > 74.1 µM | TGI [16]: > 73.8 µM | TGI [17]: 45.2 µM | TGI [18]: 40 µM | TGI [19]: 37.4 µM | TGI [20]: 47.7 µM | TGI [21]: 38.6 µM | TGI [22]: 38.5 µM | TGI [23]: 37.7 µM | TGI [24]: > 83.8 µM | TGI [25]: 38.2 µM | TGI [26]: 85.5 µM | TGI [27]: 49.8 µM | TGI [28]: 55.8 µM | TGI [29]: 39.6 µM | TGI [30]: > 94.9 µM | TGI [31]: 42.4 µM | TGI [32]: 18.8 µM | TGI [33]: 47.9 µM | TGI [34]: 40.5 µM | TGI [35]: 96.3 µM | TGI [36]: 39.7 µM | TGI [37]: 48.7 µM | TGI [38]: > 100 µM | TGI [39]: 39.7 µM | TGI [40]: > 100 µM | TGI [41]: 20.4 µM | TGI [42]: 67.1 µM | TGI [43]: 39.3 µM | TGI [44]: > 68.5 µM | TGI [45]: > 96.2 µM | TGI [46]: 46.5 µM | TGI [47]: 36.3 µM | TGI [48]: 35 µM | TGI [49]: > 66.8 µM | TGI [50]: 44.8 µM | TGI [51]: > 100 µM | TGI [52]: > 88.7 µM | TGI [53]: 52.8 µM | TGI [54]: 39 µM | TGI [55]: 53.3 µM

CC1=C(CO)C(=O)OC(C(C)C2CCC3C4CC5OC56C(O)C(N5CC5)=CC(=O)C6(C)C4CCC23C)C1 (stereo not given)
TGI [1]: 5.78 µM | TGI [2]: 6.4 µM | TGI [3]: 23.8 µM | TGI [56]: 17.8 µM | TGI [4]: 8.52 µM | TGI [5]: 16.4 µM | TGI [6]: 14.2 µM | TGI [57]: 10.5 µM | TGI [7]: 15.5 µM | TGI [8]: 7.45 µM | TGI [9]: 9.73 µM | TGI [11]: 5.01 µM | TGI [12]: 16.3 µM | TGI [13]: 7 µM | TGI [14]: 3.36 µM | TGI [15]: 19.5 µM | TGI [16]: 29.1 µM | TGI [17]: 25 µM | TGI [18]: 33.7 µM | TGI [21]: 6.08 µM | TGI [22]: 9.87 µM | TGI [23]: 15.1 µM | TGI [24]: 20.6 µM | TGI [25]: 12.2 µM | TGI [58]: 19.5 µM | TGI [59]: 22 µM | TGI [26]: 46.9 µM | TGI [27]: 25.7 µM | TGI [28]: 31.2 µM | TGI [29]: 14 µM | TGI [30]: 25.6 µM | TGI [31]: 14.4 µM | TGI [32]: 25.4 µM | TGI [33]: 11.7 µM | TGI [34]: 31.1 µM | TGI [35]: 9.56 µM | TGI [36]: 18.1 µM | TGI [37]: 18.6 µM | TGI [38]: 17.6 µM | TGI [39]: 5.85 µM | TGI [40]: 17.8 µM | TGI [43]: 31.1 µM | TGI [44]: 17.9 µM | TGI [45]: 29.6 µM | TGI [60]: 19.3 µM | TGI [46]: 24.4 µM | TGI [47]: 13.7 µM | TGI [49]: 12.9 µM | TGI [50]: 25.1 µM | TGI [61]: 15.9 µM | TGI [62]: 34.5 µM | TGI [63]: 24.6 µM | TGI [53]: 40.7 µM | TGI [54]: 23.5 µM | TGI [55]: 26.9 µM
